Results taken from patent US10174013B2, “Benzimidazole derivatives as kinase inhibitors” (SELVITA S.A., priority 2012, dated 2019).
Counter-ions that a name gives are not always drawn. Like-named read-outs stand apart in the source and are kept apart here.

How the values were obtained:
Jeko-1 cells = test: Growth inhibition, MTS assay, Jeko-1; type: cell-based, Human; details: 72 hours, MTS cell viability, read-out: Jeko-1 ED50
[1] = test system: Pim kinase biomarkers in MV4-11 cells; test: Pim-kinase biomarkers in MV4-11 cells; type: cell-based, Human; details: 0.25-5 μM, 4 and 24 h
Description: The efficacy of compounds 1A and 2A on Pim kinase-inhibition was tested in MV4-11 cells (see above). Cells were treated with each compound at concentrations of 0.25, 0.5, 1, 2.5 and 5 μM for 4 and 24 h. The positive control Ref A (the commercially available inhibitor SGI-1776 [obtained from Selleck Bio]) was used at a concentration of 5 μM. DMSO (Dimethyl sulfoxide) was used as a negative control. The levels of the following classical Pim-1 kinase biomarkers were assessed: c-Myc, phospho-4EBP1 (Ser65, Thr37&46) and phosphorylated S6 (Ser235). […] Also, the levels of pro-apoptotic and pro-survival biomarkers were assessed. First, induction of apoptosis, recognizable as an appearance and increased expression of cleaved form of the PARP protein, was observed, both at 4 and 24 hours after compound stimulation at high concentrations. […] Levels of tubulin were assessed as a reference loading control.
The efficacy of compound 1BI on Pim kinase-inhibition was tested in MV4-11 cells. The cells were treated with compound 1BI at concentrations of 0.25, 0.5, 1, 2.5 and 5 μM for 4 and 24 h. The positive controls Ref. A (SGI-1776, see above) and Ref. B (the commercially available inhibitor Sunitinib [obtained from Ark Pharm]) were used at 5 μM concentration. DMSO (Dimethyl sulfoxide) was used as a negative control. The levels of the following classical Pim-1 kinase biomarkers were assessed: c-myc, phospho-4EBP1 (Ser65, Thr37&46) and phosphorylated S6 (Ser235/236). […] The levels of pro-apoptotic and pro-survival biomarkers were also assessed. […] Levels of tubulin were assessed as a reference loading control.

MOLM13 cells = test: Growth inhibition, MTS assay, MOLM13; type: cell-based, Human; details: 72 hours, MTS cell viability, read-out: MOLM 13 ED50
MOLM16 cells = test: Growth inhibition, MTS assay, MOLM16; type: cell-based, Human; details: MTS cell viability, read-out: MOLM 16 ED50
KG-1 cells = test: Growth inhibition, MTS assay, KG-1; type: cell-based, Human; details: 72 hours, MTS cell viability
Source text: The following cell lines, were obtained and used in tests as outlined below: • Human myelomonocytic, biphenotypic leukemia MV4-11 cells (harboring a Flt3-ITD mutation); • Human Acute Myeloid Leukemia MOLM16 cells; • Human Acute Myeloid Leukemia MOLM13 cells (harboring a Flt3-ITD mutation); • Human Myeloid Leukemia KG-1 cells; • Human erythroleukemia HEL92 cells; • Human mantle cell lymphoma Jeko-1 cells; • Human hepatocellular carcinoma HepG2 cells; and • Human colon adenocarcinoma SW-480 cells.
The assays were carried out according to the following protocol, which is described as an example for the MV4-11 cells:
Ten thousand MV4-11 cells were inoculated into each well of a 96-well microplate (manufactured by Corning Corp.) using Iscove's MDM medium (culture medium) containing 10% fetal calf serum (FCS). The same day, a dimethyl sulfoxide (DMSO) solution of each test compound prepared in a concentration of 10 mmol/L was further diluted with DMSO to the desired concentrations (0.1, 0.5, 1, 2.5, 5 and 10 micromol/L), and the diluted solution was added to each well. The individual wells were further cultured in 5% carbon dioxide at 37° C. for 72 hours. […] Briefly, 10 μl MTS (3-(4,5-Dimethyl-2-thiazolyl)-5-(carboxymethoxyphenyl)-2-(4-sulfophenyl)-2H-tetrazolium was added to each well, and culturing was performed in 5% carbon dioxide at 37° C. for 2 hours. After this incubation and using a microplate spectrophotometer (Synergy 2 multi-mode microplate reader (BioTek)), the absorbance of each well was measured at 490 nm. The value for cells not incubated with a test compound was designated as 100%. By comparing these values with the absorbance difference obtained at the well in which each test compound was added, the cell viability (% viability) after treatment with the test compound was calculated.

MOLM-16 = test: Combination study with anti-cancer agents, cell viability, MOLM-16; details: for Effect of combination: MOLM-16 (Acute myeloid leukemia), 72 hours
Description: (§2) After this incubation, a cell viability assay was carried out according to the Manufacturer's instructions (CellTiter 96®AQueous Non-Radioactive Cell Proliferation Assay, Promega). The results were expressed as percentage of viable cells upon treatment with the individual drugs or the combination compared to the vehicle (DMSO) treated cells.

MV4-11 = test: Combination study with anti-cancer agents, cell viability, MV4-11; details: for ED50 value in MV4-11: single agent, used as fixed concentration in combination study; for Effect of combination: 72 hours
Description: as §2

FLT3(ITD) = FLT3(ITD) (Homo sapiens, UniProt P36888, ITD); test: Binding to FLT3(ITD) mutant (DiscoveRx)
Description: (§1) Selected compounds were also tested for their binding properties against FLT3 kinase mutants using suitable in vitro assays (performed according to standard assays at DiscoveRx Corporation). The compounds show strong binding to the main oncogenic mutants of the FLT3 kinase, see Table 1B.

FLT3wt = FLT3wt (Homo sapiens (Human), UniProt P36888); test: Binding to FLT3 wildtype (DiscoveRx)
PC3 = test: Combination study with anti-cancer agents, cell viability, PC3; details: for Effect of combination: 72 hours
Description: as §2

HEL-92 = test: Combination study with anti-cancer agents, cell viability, HEL-92; details: for Effect of combination: 72 hours
Description: as §2

U-937 = test: Combination study with anti-cancer agents, cell viability, U-937; details: for Effect of combination: 72 hours
Description: as §2

FLT3(D835H) = FLT3(D835H) (Homo sapiens (Human), UniProt P36888, D835H); test: Binding to FLT3(D835H) mutant (DiscoveRx)
Description: as §1

Mino = test: Combination study with anti-cancer agents, cell viability, Mino
Description: as §2

FLT3(D835Y) = FLT3(D835Y) (Homo sapiens (Human), UniProt P36888, D835Y); test: Binding to FLT3(D835Y) mutant (DiscoveRx)
Description: as §1

[2] = single agent, used as fixed concentration in combination study

In the case of `CC(C)n1c(N2CC[C@@H](N)C2)nc2c(C#N)c(Br)c(Br)cc21` [Example 1BI], the IC50 (Jeko-1 cells; Homo sapiens, JeKo-1) is reported as 700 nM, the “Mcl-1 pro-survival protein level” value [1] is reported as “dosed-dependent protein down-regulation” and the “induction of apoptosis (cleaved form of PARP protein)” value [1] is reported as “observed in the highest concentration at 4 hours”. The “levels of c-myc protein” value [1] was “down-regulated”, the “levels of phosphorylated 4EBP1 (Ser65, Thr37&46)” value [1] was “down-regulated” and the “levels of phosphorylated S6” value [1] was “diminished almost completely”. For the same compound, the “levels of phosphorylated p44/42 (Erk1/2), Flt3 biomarker” value [1] was “downregulated”, the IC50 (MOLM13 cells; Homo sapiens, MOLM-13) was 3250 nM and the IC50 (MOLM16 cells; Homo sapiens, MOLM16, 72 h) was 80 nM. The “KG-1 ED50” value (KG-1 cells) was 90 nM.

In the case of `CC(C)n1c(N2CCNC[C@H]2C)nc2c([N+](=O)[O-])c(Br)c(Br)cc21` [Example 1AX], the IC50 (Jeko-1 cells) is reported as over 100 nM, the IC50 (MOLM13 cells) is reported as 60 nM and the IC50 (MOLM16 cells; 72 hours) is reported as 20 nM. For the same compound, the “KG-1 ED50” value (KG-1 cells) was 120 nM.

`CC(C)n1c(C2CCNCC2)nc2c([N+](=O)[O-])c(Br)c(Br)cc21` [Example 26A, 5,6-dibromo-4-nitro-2-(piperidin-4-yl)-1-(propan-2-yl)-1H-1,3-benzodiazole] gave an IC50 (Jeko-1 cells; Homo sapiens, JeKo-1) of 300 nM, an IC50 (MOLM13 cells; Homo sapiens, MOLM-13) of 320 nM and an IC50 (MOLM16 cells; Homo sapiens, MOLM16, 72 h) of 220 nM. The “ED50 value in MOLM-16” value (MOLM-16; [2]) was 400 nM, the Effect of combination (MOLM-16; with C (Cytarabine)) was “Synergistic” and the Effect of combination (MOLM-16; with V (Vosaroxin)) was “Synergistic”. The “ED50 value in MV4-11” value (MV4-11) was 100 nM, the Effect of combination (MV4-11; with C (Cytarabine), MV4-11 (Acute myeloid leukemia)) was “Synergistic” and the Effect of combination (MV4-11; with V (Vosaroxin), MV4-11 (Acute myeloid leukemia)) was “Synergistic”. The “KG-1 ED50” value (KG-1 cells) was 470 nM.

`CC(C)n1c(N2CCNCC2)nc2c([N+](=O)[O-])c(Br)c(Br)cc21` [Example 2A, 5,6-dibromo-4-nitro-2-(piperazin-1-yl)-1-(propan-2-yl)-1H-1,3-benzodiazole hydrochloride] was tested, and the IC50 (Jeko-1 cells; Homo sapiens, JeKo-1) was 400 nM, the IC50 (MOLM13 cells; Homo sapiens, MOLM-13) was 250 nM and the IC50 (MOLM16 cells; Homo sapiens, MOLM16, 72 h) was 140 nM. For the same compound, the Kd (FLT3(ITD)) was 18 nM and the “KG-1 ED50” value (KG-1 cells) was 630 nM.

For `CCn1c(N2CCNCC2)nc2c([N+](=O)[O-])c(Br)c(Br)cc21` [Example 1A, 5,6-dibromo-1-ethyl-4-nitro-2-(piperazin-1-yl)-1H-1,3-benzodiazole hydrochloride], the Kd (FLT3wt) was 400 nM, the IC50 (Jeko-1 cells; Homo sapiens, JeKo-1) was 800 nM and the “Mcl-1 pro-survival protein level” value [1] was “dosed-dependent protein down-regulation”. For the same compound, the “induction of apoptosis (cleaved form of PARP protein)” value [1] was “observed”, the “levels of c-myc protein” value [1] was “downregulated” and the “levels of phosphorylated 4EBP1 (Ser65, Thr37&46)” value [1] was “downregulated”. For the same compound, the “levels of phosphorylated S6” value [1] was “downregulated”, the “levels of phosphorylated p44/42 (Erk1/2), Flt3 biomarker” value [1] was “downregulated” and the “ED50 value in PC3” value (PC3; [2]) was 2910 nM. The Effect of combination (PC3; with CAL-101, PC3 (Prostate cancer)) was “Synergistic”, the Effect of combination (PC3; with GDC-0941, PC3 (Prostate cancer)) was “Synergistic/” and the Effect of combination (PC3; with Rapamycin, PC3 (Prostate cancer)) was “Synergistic”. The Effect of combination (PC3; with Wortmannin, PC3 (Prostate cancer)) was “Synergistic”, the IC50 (MOLM13 cells; Homo sapiens, MOLM-13) was 700 nM and the IC50 (MOLM16 cells; Homo sapiens, MOLM16, 72 hours) was 500 nM. The Kd (FLT3(ITD)) was 74 nM, the “ED50 value in HEL-92” value (HEL-92; [2]) was 5460 nM and the Effect of combination (HEL-92; with CP690550, HEL92 (Erythroleukemia)) was “Synergistic”. The Effect of combination (HEL-92; with Cyt387, HEL92 (Erythroleukemia)) was “Synergistic”, the Effect of combination (HEL-92; with Ruxolitinib, HEL92 (Erythroleukemia)) was “Synergistic/” and the “ED50 value in U-937” value (U-937; [2]) was 6640 nM. The Effect of combination (U-937; with ABT737, U937 (Histiocytic lymphoma)) was “Synergistic”, the Effect of combination (U-937; with Obatoclax, U937 (Histiocytic lymphoma)) was “Synergistic” and the Kd (FLT3(D835H)) was 120 nM. The “ED50 value in MV4-11” value (MV4-11) was 500 nM, the Effect of combination (MV4-11; with CAL-101, MV4-11 (Acute myeloid leukemia)) was “Synergistic” and the “ED50 value in Mino” value (Mino; [2]) was 1700 nM. For the same compound, the Effect of combination (Mino; with PD0332991, Mino (Mantle cell lymphoma), 72 hours) was “Synergistic” and the Kd (FLT3(D835Y)) was 46 nM.
